Here are results for 7 compounds from ChEMBL document CHEMBL1146576, “Anti-inflammatory lanostane-type triterpene acids from Piptoporus betulinus” (2003).

Holding throughout (format): functional
For experiment [1], the system named is Mus musculus. Put plainly: Antiinflammatory activity in mouse assessed as inhibition of TPA-induced ear edema at 430 nmol.
In experiment [2] the test system is Mus musculus. The experiment can be described thus: Antiinflammatory activity in mouse assessed as inhibition of TPA-induced ear edema at 400 nmol.
In experiment [3] the test system is Mus musculus. Put plainly: Antiinflammatory activity in mouse assessed as inhibition of TPA-induced ear edema at 560 nmol.

Regarding `CC1(C)[C@@H](O)CC[C@]2(C)[C@H]3C(=O)C=C4[C@@H]5C[C@@](C)(C(=O)O)CC[C@]5(C)CC[C@@]4(C)[C@]3(C)CC[C@@H]12` [ENOXOLONE], the “inhibition (INH)” value with Mus musculus [1] is 24%.
As to `C=C(CC[C@@H](C)[C@H]1CC[C@@]2(C)C3=C(C[C@H](O)[C@]12C)[C@@]1(C)CC[C@@H](OC(=O)CC(=O)O)C(C)(C)[C@@H]1CC3)[C@H](C)C(=O)O`, in the experiment with Mus musculus [2], the “inhibition (INH)” value amounted to 65%.
As to `COc1ccc2c(c1)c(CC(=O)O)c(C)n2C(=O)c1ccc(Cl)cc1` [INDOMETHACIN], in the experiment on Mus musculus [3], the “inhibition (INH)” value is reported as 16%.
For the compound `C=C(CC[C@@H](C(=O)O)[C@H]1[C@H](O)C[C@@]2(C)C3=CC[C@H]4C(C)(C)C(=O)CC[C@]4(C)C3=CC[C@]12C)C(C)C` [POLYPORENIC ACID B], in the experiment with Mus musculus [2], the “inhibition (INH)” value worked out at 49%.
On the same count and under the same terms, under `C=C(CC[C@@H](C)[C@H]1CC[C@@]2(C)C3=C(C[C@H](O)[C@]12C)[C@@]1(C)CC[C@@H](OC(=O)CC(C)(O)CC(=O)OC)C(C)(C)[C@@H]1CC3)[C@H](C)C(=O)O` (some centres not stated) stands 75%.
Same read-out and setting: the result for `C=C(CC[C@@H](C)[C@H]1CC[C@@]2(C)C3=C(C[C@H](O)[C@]12C)[C@@]1(C)CC[C@@H](OC(=O)C[C@](C)(O)CC(=O)OC)C(C)(C)[C@@H]1CC3)[C@H](C)C(=O)O` reads 86%; that for `C=C(CC[C@@H](C)[C@H]1CC[C@@]2(C)C3=C(C[C@H](O)[C@]12C)[C@@]1(C)CC[C@@H](O)C(C)(C)[C@@H]1CC3)[C@H](C)C(=O)O` [POLYPORENIC ACID A], 64%.
